Test results: patent US9382254B2, “Compounds and pharmaceutical compositions thereof for the treatment of cystic fibrosis” (Galapagos NV, priority 2013, dated 2016)

Key:
Type in all cases: cell-based
CFTR ΔF508 mutant [1] = molecular target: T1, CFTR ΔF508 mutant (Homo sapiens, UniProt P13569, DEL508-508); test: YFP-halide influx assay for the CFTR-ΔF508 mutation, gluconate buffer; conditions: CFBE41o- cells, forskolin 10.67 μM
T1 construct: expressed in transfected cells; host or cells: CFBE41o- (adenoviral transduction)
T1 sequence (P13569 with tags, fused parts or gaps DEL508-508): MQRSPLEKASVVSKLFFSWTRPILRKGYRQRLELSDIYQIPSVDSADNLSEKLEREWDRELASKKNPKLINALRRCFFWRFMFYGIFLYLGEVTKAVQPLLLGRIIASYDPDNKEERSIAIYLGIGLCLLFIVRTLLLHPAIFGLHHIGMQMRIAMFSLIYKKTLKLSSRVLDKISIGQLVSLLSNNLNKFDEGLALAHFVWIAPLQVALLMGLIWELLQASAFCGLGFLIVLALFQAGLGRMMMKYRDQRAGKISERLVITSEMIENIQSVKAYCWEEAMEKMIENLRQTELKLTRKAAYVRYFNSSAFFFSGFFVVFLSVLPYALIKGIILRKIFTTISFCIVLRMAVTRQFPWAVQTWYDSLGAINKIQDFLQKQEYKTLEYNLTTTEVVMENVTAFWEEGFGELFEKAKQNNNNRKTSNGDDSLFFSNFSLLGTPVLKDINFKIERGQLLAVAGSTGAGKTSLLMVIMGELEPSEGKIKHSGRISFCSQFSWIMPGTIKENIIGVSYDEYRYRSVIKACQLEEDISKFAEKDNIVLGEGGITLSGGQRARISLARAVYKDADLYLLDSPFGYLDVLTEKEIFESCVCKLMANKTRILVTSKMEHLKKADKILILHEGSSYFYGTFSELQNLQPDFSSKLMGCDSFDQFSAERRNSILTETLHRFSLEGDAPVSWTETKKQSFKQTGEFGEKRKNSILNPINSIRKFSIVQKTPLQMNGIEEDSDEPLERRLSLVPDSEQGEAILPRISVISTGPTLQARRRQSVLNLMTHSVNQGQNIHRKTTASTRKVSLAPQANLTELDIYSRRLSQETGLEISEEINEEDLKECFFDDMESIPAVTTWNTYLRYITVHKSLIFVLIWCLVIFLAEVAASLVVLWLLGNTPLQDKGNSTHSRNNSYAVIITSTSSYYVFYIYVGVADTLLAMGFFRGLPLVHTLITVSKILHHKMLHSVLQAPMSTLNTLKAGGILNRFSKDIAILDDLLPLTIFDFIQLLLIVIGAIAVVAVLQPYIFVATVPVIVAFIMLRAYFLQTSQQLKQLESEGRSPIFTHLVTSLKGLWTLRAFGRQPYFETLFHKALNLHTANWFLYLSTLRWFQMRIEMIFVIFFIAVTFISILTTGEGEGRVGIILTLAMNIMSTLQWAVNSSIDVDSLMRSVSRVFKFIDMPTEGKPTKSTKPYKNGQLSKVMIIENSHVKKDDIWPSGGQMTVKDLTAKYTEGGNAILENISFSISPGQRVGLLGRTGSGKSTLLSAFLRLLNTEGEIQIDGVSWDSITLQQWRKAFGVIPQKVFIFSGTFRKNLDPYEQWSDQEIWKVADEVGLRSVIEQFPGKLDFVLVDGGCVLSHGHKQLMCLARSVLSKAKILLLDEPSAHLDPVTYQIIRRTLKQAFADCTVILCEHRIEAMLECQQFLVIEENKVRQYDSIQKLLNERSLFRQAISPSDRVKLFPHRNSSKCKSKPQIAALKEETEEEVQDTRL
How it was run: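 CFBE41o- cells adenovirally transduced with CFTR ΔF508 and YFP H148Q/I152L, then held 24 h at 27 °C or treated with CFTR modulator 24 h at 37 °C. I− quenching recorded for 7 s after injection; activity as 1-F/F0, EC50 from concentration plot.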

CFTR ΔF508 mutant [2] = molecular target: T1, CFTR ΔF508 mutant; test: YFP-halide influx assay for the CFTR-ΔF508 mutation (384 well, FDSS/μCell); conditions: CFBE41o- cells, CFTR-ΔF508, 1×D-PBS, fluorescence after 36 seconds
How it was run: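 Potentiator read-out as 1−F/F0, F taken 36 s after iodide addition, EC50 fitted against compound concentration. Cells: CFBE41o- expressing ΔF508 CFTR plus halide-sensitive YFP via adenovirus, rescued by 27 °C for 24 h or 24 h modulator at 37 °C.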

CFTR G551D mutant = molecular target: T2, CFTR G551D mutant (Homo sapiens, UniProt P13569, G551D); test: YFP-halide influx assay for the CFTR-G551D mutation; conditions: HEK293 cells, forskolin 10.67 μM
T2 construct: expressed in transfected cells; host or cells: HEK293 (reverse transfection with plasmid)
T2 sequence (P13569 whole entry G551D): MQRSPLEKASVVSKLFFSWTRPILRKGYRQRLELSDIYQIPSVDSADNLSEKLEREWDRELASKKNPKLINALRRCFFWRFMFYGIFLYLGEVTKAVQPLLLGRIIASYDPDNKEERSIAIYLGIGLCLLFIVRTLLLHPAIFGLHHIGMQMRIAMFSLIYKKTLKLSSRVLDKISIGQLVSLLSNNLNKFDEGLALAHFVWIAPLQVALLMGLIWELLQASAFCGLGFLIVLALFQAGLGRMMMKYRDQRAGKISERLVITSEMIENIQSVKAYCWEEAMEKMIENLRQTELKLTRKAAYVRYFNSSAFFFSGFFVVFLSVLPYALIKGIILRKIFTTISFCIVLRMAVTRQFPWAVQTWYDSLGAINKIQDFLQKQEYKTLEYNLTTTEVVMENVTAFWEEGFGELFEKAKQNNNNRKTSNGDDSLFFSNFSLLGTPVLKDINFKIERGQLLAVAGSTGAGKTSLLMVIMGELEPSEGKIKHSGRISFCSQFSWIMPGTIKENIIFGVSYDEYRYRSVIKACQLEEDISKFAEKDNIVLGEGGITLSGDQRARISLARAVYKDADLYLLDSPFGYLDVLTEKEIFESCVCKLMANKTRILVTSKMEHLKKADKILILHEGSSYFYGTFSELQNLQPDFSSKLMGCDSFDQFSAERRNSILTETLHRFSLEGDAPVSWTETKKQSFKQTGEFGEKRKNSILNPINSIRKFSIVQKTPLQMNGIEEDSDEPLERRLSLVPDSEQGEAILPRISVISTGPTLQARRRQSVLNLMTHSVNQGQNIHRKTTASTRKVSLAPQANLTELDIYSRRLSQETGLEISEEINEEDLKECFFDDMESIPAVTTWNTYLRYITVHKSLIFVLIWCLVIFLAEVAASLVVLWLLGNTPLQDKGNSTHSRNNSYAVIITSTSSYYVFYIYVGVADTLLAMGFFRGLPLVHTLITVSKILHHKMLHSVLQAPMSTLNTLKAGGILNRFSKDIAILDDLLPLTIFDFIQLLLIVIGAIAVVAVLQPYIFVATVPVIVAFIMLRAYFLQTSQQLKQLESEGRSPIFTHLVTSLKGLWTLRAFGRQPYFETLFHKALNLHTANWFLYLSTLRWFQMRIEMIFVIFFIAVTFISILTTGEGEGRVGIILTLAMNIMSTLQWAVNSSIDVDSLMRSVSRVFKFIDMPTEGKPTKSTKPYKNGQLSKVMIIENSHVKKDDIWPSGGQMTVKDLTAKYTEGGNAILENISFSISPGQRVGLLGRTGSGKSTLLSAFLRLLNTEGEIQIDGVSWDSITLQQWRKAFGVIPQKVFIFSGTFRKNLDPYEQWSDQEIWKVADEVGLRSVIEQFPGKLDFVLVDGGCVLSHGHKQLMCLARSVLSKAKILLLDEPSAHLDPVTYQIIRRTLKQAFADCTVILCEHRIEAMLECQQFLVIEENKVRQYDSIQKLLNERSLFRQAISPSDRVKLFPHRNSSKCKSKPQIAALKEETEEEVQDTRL
How it was run: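 HEK293 cells reverse-transfected with CFTR G551D and YFP H148Q/I152L/F47L halide sensor, expressed 24 h at 37 °C. Iodide-induced fluorescence quench recorded 7 s after I− injection; response = 1−F/F0, with EC50 from plot against compound concentration.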

| SMILES | EC50 (CFTR ΔF508 mutant [1]) [nM] | EC50 (CFTR ΔF508 mutant [2]) [nM] | EC50 (CFTR G551D mutant) [nM] |
| --- | --- | --- | --- |
| CCN(C)S(=O)(=O)c1cc(C(N)=O)c(NC(=O)c2ccc(C)s2)s1 [Compound 3, N-(3-carbamoyl-5-(N-ethyl-N-methylsulfamoyl)thiophen-2-yl)-5-methylthiophene-2-carboxamide] | 107 | 109 |  |
| CCN(CC)S(=O)(=O)c1cc(C(N)=O)c(NC(=O)c2ccc(C)s2)s1 [Compound 4, N-(3-carbamoyl-5-(N,N-diethylsulfamoyl)thiophen-2-yl)-5-methylthiophene-2-carboxamide] | 94 | 135 |  |
| Cc1ccc(C(=O)Nc2sc(S(=O)(=O)c3ccccc3)cc2C(N)=O)s1 [Compound 16, N-(3-carbamoyl-5-(phenylsulfonyl)thiophen-2-yl)-5-methylthiophene-2-carboxamide] | 99.7 | 187 |  |
| NC(=O)c1cc(S(=O)(=O)N2CCCCC2)sc1NC(=O)c1ccn[nH]1 [Compound 36, N-(3-carbamoyl-5-(piperidin-1-ylsulfonyl)thiophen-2-yl)-1H-pyrazole-3-carboxamide] | 92.3 | 13.1 |  |
| Cc1c(S(=O)(=O)c2ccccc2)sc(NC(=O)c2ccccc2F)c1C(N)=O [Compound 87, 2-(2-fluorobenzamido)-4-methyl-5-(phenylsulfonyl) thiophene-3-carboxamide] | 44.1 | 84.3 |  |
| CCc1cc(C(=O)Nc2sc(S(=O)(=O)c3ccccc3)cc2C(N)=O)n[nH]1 [Compound 95, N-(3-carbamoyl-5-(phenylsulfonyl)thiophen-2-yl)-5-ethyl-1H-pyrazole-3-carboxamide] | 99.4 | 101 |  |
| Cc1c(S(=O)(=O)c2ccccc2)sc(NC(=O)c2cc[nH]n2)c1C(N)=O [Compound 101, N-(3-carbamoyl-4-methyl-5-(phenylsulfonyl)thiophen-2-yl)-1H-pyrazole-3-carboxamide] | 20.5 | 26.8 |  |
| CCc1cc(C(=O)Nc2sc(S(=O)(=O)c3ccccc3)c(C)c2C(N)=O)n[nH]1 [Compound 103, N-(3-carbamoyl-4-methyl-5-(phenylsulfonyl)thiophen-2-yl)-5-ethyl-1H-pyrazole-3-carboxamide] | 38.4 | 54.6 |  |
| NC(=O)c1cc(S(=O)(=O)c2ccc(F)cc2)sc1NC(=O)c1ccn[nH]1 [Compound 109, N-(3-carbamoyl-5-(4-fluorophenylsulfonyl)thiophen-2-yl)-1H-pyrazole-3-carboxamide] | 28.6 | 28.9 |  |
| NC(=O)c1cc(S(=O)(=O)c2ccc(F)cc2)sc1NC(=O)c1ccccc1F [Compound 111, 2-(2-fluorobenzamido)-5-(4-fluorophenylsulfonyl) thiophene-3-carboxamide] | 84.3 | 199 |  |
| NC(=O)c1cc(S(=O)(=O)c2cccc(F)c2)sc1NC(=O)c1cc[nH]n1 [Compound 113, N-(3-carbamoyl-5-(3-fluorophenylsulfonyl)thiophen-2-yl)-1H-pyrazole-3-carboxamide] | 29.2 | 5.8 |  |
| CCc1cc(C(=O)Nc2sc(S(=O)(=O)c3cccc(F)c3)cc2C(N)=O)n[nH]1 [Compound 114, N-(3-carbamoyl-5-(3-fluorophenylsulfonyl)thiophen-2-yl)-5-ethyl-1H-pyrazole-3-carboxamide] | 90.7 | 102 |  |
| CCc1cc(C(=O)Nc2sc(S(=O)(=O)c3ccccc3F)cc2C(N)=O)n[nH]1 [Compound 116, N-(3-carbamoyl-5-(2-fluorophenylsulfonyl)thiophen-2-yl)-5-ethyl-1H-pyrazole-3-carboxamide] | 59.7 | 63.5 |  |
| NC(=O)c1cc(S(=O)(=O)c2ccc(F)c(F)c2)sc1NC(=O)c1cc[nH]n1 [Compound 118, N-(3-carbamoyl-5-(3,4-difluorophenylsulfonyl)thiophen-2-yl)-1H-pyrazole-3-carboxamide] | 36 | 9.6 |  |
| CCc1cc(C(=O)Nc2sc(S(=O)(=O)c3ccc(F)c(F)c3)cc2C(N)=O)n[nH]1 [Compound 119, N-(3-carbamoyl-5-(3,4-difluorophenylsulfonyl)thiophen-2-yl)-5-ethyl-1H-pyrazole-3-carboxamide] | 78.3 | 187 |  |
| CCc1ccccc1S(=O)(=O)c1cc(C(N)=O)c(NC(=O)c2ccccc2F)s1 [Compound 121, 5-(2-ethylphenylsulfonyl)-2-(2-fluorobenzamido) thiophene-3-carboxamide] | 74.9 | 292 |  |

Second part, the compound after the results:

| EC50 (CFTR ΔF508 mutant [1]) [nM] | EC50 (CFTR ΔF508 mutant [2]) [nM] | EC50 (CFTR G551D mutant) [nM] | SMILES |
| --- | --- | --- | --- |
| 76.9 | 76.4 |  | COC1CCN(S(=O)(=O)c2cc(C(N)=O)c(NC(=O)c3ccccc3F)s2)CC1 [Compound 123, 2-(2-fluorobenzamido)-5-(4-methoxypiperidin-1-ylsulfonyl)thiophene-3-carboxamide] |
| 114 | 55.5 |  | NC(=O)c1cc(S(=O)(=O)N2CCC(F)(F)CC2)sc1NC(=O)C1(O)CC1 [Compound 139, 5-(4,4-difluoropiperidin-1-ylsulfonyl)-2-(1-hydroxycyclopropanecarboxamido) thiophene-3-carboxamide] |
| 29.3 | 10.3 | 67.4 | NC(=O)c1cc(S(=O)(=O)N2CCC(F)(F)CC2)sc1NC(=O)c1cc[nH]n1 [Compound 140, N-(3-carbamoyl-5-(4,4-difluoropiperidin-1-ylsulfonyl)thiophen-2-yl)-1H-pyrazole-3-carboxamide] |
| 82.1 | 135 |  | CN(C1CC1)S(=O)(=O)c1cc(C(N)=O)c(NC(=O)c2ccccc2F)s1 [Compound 152, 5-(N-cyclopropyl-N-methylsulfamoyl)-2-(2-fluorobenzamido)thiophene-3-carboxamide] |
| 46 | 46 |  | CC(C)N(C)S(=O)(=O)c1cc(C(N)=O)c(NC(=O)c2ccccc2F)s1 [Compound 153, 2-(2-fluorobenzamido)-5-(N-isopropyl-N-methylsulfamoyl) thiophene-3-carboxamide] |
| 105 | 427 |  | CC(C)N(C(C)C)S(=O)(=O)c1cc(C(N)=O)c(NC(=O)c2ccccc2F)s1 [Compound 154, 5-(N,N-diisopropylsulfamoyl)-2-(2-fluorobenzamido) thiophene-3-carboxamide] |
| 38 | 184 |  | Cc1ccc(CN(C)S(=O)(=O)c2cc(C(N)=O)c(NC(=O)c3cc[nH]n3)s2)cc1 [Compound 170, N-(3-carbamoyl-5-(N-methyl-N-(4-methylbenzyl)sulfamoyl)thiophen-2-yl)-1H-pyrazole-3-carboxamide] |
| 21 | 15.8 |  | CN(c1ccc(F)cc1)S(=O)(=O)c1cc(C(N)=O)c(NC(=O)c2cc[nH]n2)s1 [Compound 173, 1H-Pyrazole-3-carboxylic acid {3-carbamoyl-5-[(4-fluoro-phenyl)-methyl-sulfamoyl]-thiophen-2-yl}-amide] |
| 97.9 | 433 |  | COc1ccc(OC)c(S(=O)(=O)c2cc(C(N)=O)c(NC(=O)c3ccccc3F)s2)c1 [Compound 182, 5-(2,5-dimethoxyphenylsulfonyl)-2-(2-fluorobenzamido)thiophene-3-carboxamide] |
| 122 |  | 226 | NC(=O)c1cc(S(=O)(=O)N2CCC(F)(F)CC2)sc1NC(=O)c1cc(C(F)(F)F)[nH]n1 [Compound 189, N-(3-carbmoyl-5-(4,4-difluoropiperidin-1-ylsulfonyl)thiophen-2-yl)-5-(trifluoromethyl)-1H-pyrazole-3-carboxamide] |
| 3330 |  |  | CC(C)c1cc(C(=O)Nc2sc(S(=O)(=O)N3CCOCC3)cc2C(N)=O)c(O)c(C(C)C)c1 [Compound 201, 2-(2-hydroxy-3,5-diisopropylbenzamido)-5-(morpholinosulfonyl) thiophene-3-carboxamide] |
| 706 |  |  | NC(=O)c1cc(S(=O)(=O)N2CCC(F)(F)CC2)sc1NC(=O)C1(O)CCOCC1 [Compound 202, N-(3-carbamoyl-5-(4,4-difluoropiperidin-1-ylsulfonyl)thiophen-2-yl)-4-hydroxytetrahydro-2H-pyran-4-carboxamide] |
| 3330 |  |  | CC(C)(O)C(=O)Nc1sc(S(=O)(=O)N2CCOCC2)cc1C(N)=O [Compound 203, 2-(2-hydroxy-2-methylpropanamido)-5-(morpholinosulfonyl) thiophene-3-carboxamide] |
| 218 |  |  | COCCCN(C)S(=O)(=O)c1cc(C(N)=O)c(NC(=O)c2cc[nH]n2)s1 [Compound 204, N-(3-carbamoyl-5-(N-(3-methoxypropyl)-N-methylsulfamoyl)thiophen-2-yl)-1H-pyrazole-3-carboxamide] |
| 1150 |  |  | NC(=O)c1cc(S(=O)(=O)N2CC(F)C2)sc1NC(=O)c1cc[nH]n1 [Compound 205, N-(3-carbamoyl-5-(3-fluoroazetidin-1-ylsulfonyl)thiophen-2-yl)-1H-pyrazole-3-carboxamide] |
| 573 |  |  | NC(=O)c1cc(S(=O)(=O)N2CCC2)sc1NC(=O)c1cc[nH]n1 [Compound 208, N-(5-(azetidin-1-ylsulfonyl)-3-carbamoylthiophen-2-yl)-1H-pyrazole-3-carboxamide] |
| 320 |  |  | CS(=O)(=O)c1cc(C(N)=O)c(NC(=O)c2ccccc2O)s1 [Compound 211, 2-(2-hydroxybenzamido)-5-(methylsulfonyl)thiophene-3-carboxamide] |
